{"source": "patent US9732164B2", "about": "“Chitosan-derivative compounds and methods of controlling microbial populations” (SYNEDGEN, INC., priority 2006, dated 2017)", "system": "HeLa cells", "conditions": "human, 48 h, 1 micromolar", "data": [{"smiles": "CC(=O)O[C@H]1C(=O)[C@@]2(C)[C@H]([C@H](OC(=O)c3ccccc3)[C@]3(O)C[C@H](OC(=O)[C@H](O)[C@@H](NC(=O)c4ccccc4)c4ccccc4)C(C)=C1C3(C)C)[C@]1(OC(C)=O)CO[C@@H]1C[C@@H]2O", "note": "[taxol]", "values": [{"measurement": "HeLa cells killed", "result": "~100", "unit": "%"}]}]}
